How the values were obtained:
Test in all cases: relative viability (nuclei count vs DMSO), 5 days (fraction); higher = more cells survive
[1] = compound: O=C1NC(=O)[C@@H](c2cn3c4c(cccc24)CCC3)[C@@H]1c1c[nH]c2ccccc12 [Tivantinib] + C[C@]1(O)C[C@@H](c2nc(-c3ccc4ccc(-c5ccccc5)nc4c3)c3c(N)nccn32)C1 [Linsitinib] (partner 1 µM)
In short: (§1)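 Lung cancer cell lines in 1536-well plates got either a single drug or a fixed anchor-drug dose together with five library-drug doses (not always all listed) in √10 steps, by pin tool, on the day after seeding. Nuclei were counted after 5 days, and relative viability is the treated-to-vehicle ratio of nuclei counts. Values are medians of duplicate plates.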

[2] = compound: O=C1NC(=O)[C@@H](c2cn3c4c(cccc24)CCC3)[C@@H]1c1c[nH]c2ccccc12 [Tivantinib] + CC(C)C[C@H](NC(=O)[C@H](Cc1ccccc1)NC(=O)c1cnccn1)B(O)O [Bortezomib] (partner 0.002 µM)
In short: as §1

[3] = compound: O=C1NC(=O)[C@@H](c2cn3c4c(cccc24)CCC3)[C@@H]1c1c[nH]c2ccccc12 [Tivantinib] + COc1cc2c(Oc3ccc(NC(=O)C4(C(=O)Nc5ccc(F)cc5)CC4)cc3F)ccnc2cc1OCCCN1CCOCC1 [Foretinib] (partner 0.25 µM)
In short: as §1

[4] = compound: CC1(COc2ccc3c(c2)ncn3-c2ccc3cccc(N4CCC(N)CC4)c3n2)COC1 [Crenolanib] + Cc1cc(Nc2cc(N3CCN(C)CC3)nc(Sc3ccc(NC(=O)C4CC4)cc3)n2)n[nH]1 [Tozasertib] (partner 0.1 µM)
In short: as §1

| Cell Line | relative viability ([1]; first compound 0.01 µM) | relative viability ([1]; first compound 0.1 µM) | relative viability ([1]; first compound 0.3162 µM) | relative viability ([2]; first compound 0.01 µM) | relative viability ([2]; first compound 0.1 µM) | relative viability ([2]; first compound 0.3162 µM) | relative viability ([3]; first compound 0.01 µM) | relative viability ([3]; first compound 0.03162 µM) | relative viability ([3]; first compound 0.1 µM) | relative viability ([3]; first compound 0.3162 µM) | relative viability ([4]; first compound 0.01 µM) | relative viability ([4]; first compound 0.03162 µM) | relative viability ([4]; first compound 0.1 µM) | relative viability ([4]; first compound 0.3162 µM) | relative viability ([4]; first compound 1 µM) | relative viability ([2]; first compound 0.03162 µM) | relative viability ([1]; first compound 0.03162 µM) |
| --- | --- | --- | --- | --- | --- | --- | --- | --- | --- | --- | --- | --- | --- | --- | --- | --- | --- |
| HOP-62 | 1.02 | 1.11 | 1.15 | 0.948 | 0.591 | 1.05 | 1.17 | 1.02 | 1.06 | 1.14 | 0.357 | 0.332 | 0.43 | 0.342 | 0.341 |  |  |
| IA-LM | 0.593 | 0.586 | 0.538 | 0.855 | 0.743 | 0.848 | 1.01 | 1.15 | 0.983 | 1.12 |  |  |  |  |  | 0.942 |  |
| LC-2-ad | 0.917 | 0.837 | 0.741 | 1.18 | 0.976 | 1.08 | 0.849 | 0.924 | 0.85 | 0.597 | 0.495 | 0.435 | 0.447 | 0.34 | 0.385 | 0.853 | 0.772 |
| LCLC-97TM1 | 0.176 | 0.174 | 0.14 | 0.742 | 0.517 | 0.764 | 0.993 | 0.928 | 0.911 | 0.888 | 0.268 | 0.194 | 0.247 | 0.202 | 0.258 | 0.734 | 0.174 |
| LCLC-103H | 1.03 | 1.03 | 0.996 | 0.909 | 0.966 | 1.03 | 0.783 | 0.68 | 0.735 | 0.663 | 0.46 | 0.588 | 0.448 | 0.359 | 0.458 | 0.895 | 0.944 |
| LK-2 | 0.816 | 0.497 | 0.355 |  |  |  | 1.48 |  | 1.16 | 0.929 | 0.164 | 0.179 | 0.19 | 0.177 | 0.171 |  |  |
| LOU-NH91 | 0.859 | 0.958 | 0.536 | 0.479 | 0.522 | 0.473 | 0.901 | 0.925 | 0.939 | 0.573 | 0.767 | 0.655 | 0.653 | 0.431 | 0.616 | 0.496 | 0.884 |
| LU99A | 0.537 | 0.523 | 0.384 | 1.19 | 1.18 | 1.09 | 0.692 | 0.84 | 0.737 | 0.6 | 0.288 | 0.261 | 0.277 | 0.249 | 0.263 | 0.99 | 0.54 |
| LXF-289 | 0.982 | 0.906 | 0.927 | 1.04 | 0.922 | 1.04 | 0.96 | 0.927 | 0.95 | 0.983 | 0.183 | 0.222 | 0.201 | 0.181 | 0.176 | 1 | 0.971 |
| NCI-H23 | 0.539 | 0.626 | 0.561 | 1.13 | 0.996 | 0.965 | 1.08 | 0.957 | 1 | 0.801 | 0.358 | 0.394 | 0.385 | 0.313 | 0.27 | 1.11 | 0.579 |
| NCI-H358 | 0.725 | 0.617 | 0.328 |  |  |  | 0.716 | 0.754 | 0.508 | 0.273 | 0.0999 | 0.097 | 0.0998 | 0.0966 | 0.12 |  | 0.717 |
| NCI-H522 |  |  |  |  |  |  |  |  |  |  | 0.559 | 0.604 | 0.559 | 0.561 | 0.576 |  |  |
| NCI-H1299 | 0.941 | 0.92 | 1.04 | 1 | 1.04 | 1.03 | 1.1 | 1.04 | 1.04 | 1.07 |  |  |  |  |  | 1 | 0.946 |
| NCI-H1395 | 1.1 | 0.926 | 0.857 |  |  |  | 1.11 | 1.03 | 0.966 | 0.828 | 0.742 | 0.759 | 0.81 | 0.691 | 0.659 |  | 1.22 |
| NCI-H1563 | 1.22 | 1.07 | 1.1 | 0.831 | 0.897 | 0.809 | 0.98 | 0.892 | 0.819 | 0.783 |  |  |  |  |  | 0.748 | 1.25 |
| NCI-H1648 |  |  |  |  |  |  |  |  |  |  | 0.496 | 0.51 | 0.602 | 0.387 | 0.408 |  |  |
| NCI-H1650 |  |  |  | 0.215 | 0.225 | 0.176 | 1.08 | 1.11 | 1.02 | 0.972 | 0.334 | 0.508 | 0.361 | 0.4 | 0.357 | 0.213 |  |
| NCI-H1703 | 0.828 | 0.783 | 0.687 | 0.36 | 0.29 | 0.31 | 0.384 | 0.335 | 0.319 | 0.307 |  |  |  |  |  | 0.362 | 0.456 |
| NCI-H1792 | 0.596 | 0.512 | 0.323 | 0.943 | 0.927 | 0.813 |  |  |  |  |  |  |  |  |  | 0.968 | 0.431 |
| NCI-H1793 | 0.994 | 0.813 |  |  |  |  | 0.698 | 0.616 | 0.762 | 0.548 | 0.368 | 0.362 | 0.396 | 0.226 | 0.422 |  | 0.843 |
| NCI-H1944 | 1.07 | 1.01 | 0.583 |  |  |  | 0.795 | 0.874 | 0.851 | 0.63 | 0.251 | 0.248 | 0.261 | 0.242 | 0.234 |  | 1.06 |
| NCI-H2170 |  |  |  |  |  |  | 0.975 | 0.929 | 1.02 |  | 0.747 | 0.857 | 0.69 | 0.648 | 0.769 |  |  |
| NCI-H2342 |  |  |  |  |  |  | 1.08 | 1.15 | 0.948 | 0.682 | 0.546 | 0.496 | 0.682 | 0.483 | 0.454 |  |  |
| SK-MES-1 | 1.13 | 0.98 | 0.82 |  |  |  | 1.02 | 0.637 | 0.962 | 0.924 | 0.899 | 0.832 | 0.847 | 0.912 | 0.746 |  | 1.03 |
| SW 900 |  |  |  |  |  |  | 0.831 | 0.934 | 0.818 | 0.888 | 0.62 | 0.675 | 0.547 | 0.457 | 0.516 |  |  |

Source: the supplement of paper PMC10307832
